Patent publication US8039635B2, “N-hydroxy-4-{5-[4-(5-isopropyl-2-methyl-1,3-thiazol-4-yl) phenoxy]pentoxy} benzamidine 2 ethansulfonic acid salt, process for the preparation thereof and pharmaceutical composition comprising the same” (Dong Wha Pharmaceutical Co., Ltd., priority 2007, dated 2011)
Structures can show the parent of a compound that is named as a salt.

Columns and labels:
[1] = system: callus / bone fractures; conditions: rats, vs untreated control; cited from earlier work
[2] = Evaluation of release rate in buffer solution (pH 1.2), paddle 50 rpm; assay type: physicochemical; conditions: for release rate: buffer pH 1.2, paddle 50 rpm
Excerpt: (§1) The N-hydroxy-4-{5-[4-(5-isopropyl-2-methyl-1,3-thiazol-4-yl)phenoxy]pentoxy}benzamidine 2 ethansulfonic acid salt prepared in Example 1, the N-hydroxy-4-{5-[4-(5-isopropyl-2-methyl-1,3-thiazol-4-yl)phenoxy]pentoxy}benzamidine prepared in Comparative Example 1, and the N-hydroxy-4-{5-[4-(5-isopropyl-2-methyl-1,3-thiazol-4-yl)phenoxy]pentoxy}benzamidine 2 methansulfonic acid salt prepared in Comparative Example 2 were examined for release rate (%) in a buffer solution (pH 1.2) at a paddle rotation speed of 50 rpm.

[3] = system: ovalbumin-induced asthma; conditions: asthmatic mice, cited from earlier work
[4] = Pharmacokinetic evaluation (bioavailability) in SD rats; assay type: in vivo; conditions: 50 mg/kg
Experimental: The N-hydroxy-4-{5-[4-(5-isopropyl-2-methyl-1,3-thiazol-4-yl)phenoxy]pentoxy}benzamidine 2 ethansulfonic acid salt prepared in Example 1, and the N-hydroxy-4-{5-[4-(5-isopropyl-2-methyl-1,3-thiazol-4-yl)phenoxy]pentoxy}benzamidine 2 methansulfonic acid salt prepared in Comparative Example 2 were individually administered to SD rats in a dosage of 50 mg/kg. At given time points (0, 0.5, 1, 1.5, 2, 3, 5 and 8 hrs), rats were mildly anesthetized with diethyl ether, and blood samples were collected from the orbital venous plexus and stored at −20° C. until concentration analysis. The plasma samples were mixed with an equal volume of an internal standard substance solution (prepared by dissolving betamethasone in acetonitrile to give a final concentration of 30 μg/ml) with agitation for 1 min, and was centrifuged at 12,000 rpm for 10 min. Active components of the plasma samples were analyzed by HPLC (Model: Waters Module 1). From the obtained data, pharmacokinetic parameters [maximum blood concentration (Cmax) and area under the blood concentration-time curve (AUC)] were calculated by noncompartment analysis using the WinNonlin program (Version 1.0, Scientific Consulting Inc., USA).

[5] = Evaluation of stability under accelerated conditions, HPLC content; assay type: physicochemical; conditions: for change in content (stability in words): 60°C, 2 weeks; for Content: 60°C±2/75% RH±5, cap-opened vial
Experimental: The N-hydroxy-4-{5-[4-(5-isopropyl-2-methyl-1,3-thiazol-4-yl)phenoxy]pentoxy}benzamidine 2 ethansulfonic acid salt prepared in Example 1 was placed into a transparent glass vial, and stored at a cap-opened state under accelerated conditions (60° C.±2/75% RH±5) for a period of two weeks. Thereafter, the sample was analyzed by HPLC (Waters Module 1). The analysis was performed using a column packed with an octadecyl-silylated silica gel (Shiseido CAPCELL PAK C18, UG 120, Particle size 5 μm) under conditions: UV detection: 256 nm, injection volume: 10 μl, mobile-phase flow rate: 1.5 mL/min. The amount of the compound was calculated as an area percentage.

[6] = Evaluation of solubility in solvents at room temperature; assay type: physicochemical
Excerpt: as §1, with “solubility (μg/ml)” for “release rate (%)”, “various solvents” for “a buffer solution (pH 1.2)”, “room temperature.” for “a paddle rotation speed of 50 rpm.”

[7] = dose-dependent, vs control group

What does the source list for `Cc1nc(-c2ccc(OCCCCCOc3ccc(C(=N)NO)cc3)cc2)c(C(C)C)s1` [free base, N-hydroxy-4-{5-[4-(5-isopropyl-2-methyl-1,3-thiazol-4-yl)phenoxy]pentoxy}benzamidine]?
bone mineral content and mechanical strength of callus [1]: significantly enhanced; bone tissue density [1]: significantly increased; callus volume [1]: significantly reduced; content of connective and soft tissues in the callus tissue [1]: significantly reduced; release rate ([2]; 5 min): 1.2%; release rate ([2]; 10 min): 3.5%; release rate ([2]; 15 min): 7.9%; release rate ([2]; 30 min): 21.3%; number of eosinophils in bronchoalveolar lavage fluid [3, 7]: significantly decreased; total number of leukocytes and number of eosinophils (peripheral blood) [3, 7]: significantly decreased; increase in lung weight ([3]; oral, 18 days, vs control given sterile distilled water): suppressed the increase in lung weight; alveolar area ([3]; vs control group): significantly increased

Which results are given for `Cc1nc(-c2ccc(OCCCCCOc3ccc(C(=N)NO)cc3)cc2)c(C(C)C)s1` [2 Ethansulfonic acid salt, N-hydroxy-4-{5-[4-(5-isopropyl-2-methyl-1,3-thiazol-4-yl)phenoxy]pentoxy}benzamidine 2 ethansulfonic acid salt]?
AUC ([4]; SD, rat, in vivo): 10800 ± 833 ng·h/mL; AUC, fold higher than 2 methanesulfonic acid salt ([4]; SD, rat, in vivo): about 1.2 fold; Cmax ([4]; SD, rat, in vivo): 2360 ± 183 ng/mL; Cmax, fold higher than 2 methanesulfonic acid salt ([4]; SD, rat, in vivo): 1.3 fold; Tmax ([4]; SD, rat, in vivo): 2.13 ± 0.63 h; Tmax, fold faster than 2 methanesulfonic acid salt ([4]; SD, rat, in vivo): 1.4 fold; release rate ([2]; 5 min): 14.8%; release rate ([2]; 10 min): 20.5%; release rate ([2]; 15 min): 24.2%; release rate ([2]; 30 min): 31.3%; release rate, fold higher than 2 methanesulfonic acid salt ([2]; after 5 min): about 2.8 fold; release rate, fold higher than 2 methanesulfonic acid salt ([2]; after 10 min): about 1.4 fold; release rate, fold higher than 2 methanesulfonic acid salt ([2]; after 15 min): about 1.2 fold; change in content (stability in words) [5]: no change in content; change in content (stability in words) ([5]; listed as 2 ethanesulfonic acid salt): no change in its content; Content ([5]; after 1 week): 99.88%; Content ([5]; after 2 weeks): 99.86%; Content ([5]; early stage): 100.00%; solubility ([6]; water): 4420 µg/mL

For `CS(=O)(=O)O.CS(=O)(=O)O.Cc1nc(-c2ccc(OCCCCCOc3ccc(C(=N)NO)cc3)cc2)c(C(C)C)s1` [2 Methansulfonic acid salt, N-hydroxy-4-{5-[4-(5-isopropyl-2-methyl-1,3-thiazol-4-yl)phenoxy]pentoxy}benzamidine 2 methansulfonic acid salt], which AUC (area under the blood concentration-time curve) ([4]; SD rats) is on record?
Its AUC (area under the blood concentration-time curve) is 8970 ± 3090 ng·h/mL.

And the “Cmax (maximum blood concentration)” value ([4]; SD rats)?
The value was 1792 ± 912 ng/mL.

What about the “Tmax (time to reach maximum plasma concentration)” value ([4]; SD rats) of the same molecule?
Its value is 3.00 ± 1.63 h.

What about the release rate ([2]; 5 min) of the same molecule?
Its release rate is 5.3%.

What about the release rate ([2]; 10 min) of the same molecule?
The release rate was 13.9%.

What about the release rate ([2]; 15 min) of the same molecule?
Its release rate is 20.1%.

What about the release rate ([2]; 30 min) of the same molecule?
The release rate was 34.3%.

What about the solubility ([6]; distilled water, room temperature) of the same molecule?
Its solubility is 3,535 μg/ml.
